Read-outs that look alike come from different tables or passages of the source.
How the values were obtained:
Format in all cases: cell-based, murine
[1] = tested on: nitric oxide synthesis in RAW 264.7 cells; experiment: Suppression of nitric oxide synthesis (nitrite, Griess reagent) in LPS-stimulated RAW 264.7 cells; conditions: Mus musculus, read-out: IC50 (inhibitory concentration at 50%) of nitric oxide synthesis
Description: (§1) The murine macrophage/monocyte RAW 264.7 cells were obtained from the American Type Culture Collection (ATCC) and maintained in Dulbecco's modified Eagle's medium (DMEM) with 10% fetal bovine serum at 37° C. in 5% CO2 humidified air. In this example, cells were plated at a density of 10^6 cells/ml in 96-well plates for 24 hours, and then stimulated with LPS (100 ng/ml) in the presence of different concentrations of butylidene phthalide, citronellol, or geraniol. After 20 hours, the supernatant of the medium was collected and analyzed. In nitric oxide analysis, the concentration of butylidene phthalide was 250 μM, 500 μM, and 1000 μM, the concentration of citronellol was 50 μM, 500 μM, and 750 μM, and the concentration of geraniol was 50 μM, 500 μM, 750 μM, and 1000 μM, separately. In the control group, the cells were not treated with butylidene phthalide, citronellol, or geraniol. Because nitric oxide was unstable, nitrite was detected (Green et al., 1981; Kang et al., 1999a). 80 μl of the culture medium were mixed with an equal volume of Griess reagent (0.1% naphthylethylenediamine dihydrochloride and 1% sulfanilamide in 5% phosphoric acid), and then the absorbance at 550 nm was measured. The nitrite concentration was determined using a curve calibrated on sodium nitrite standards. […] Referring to FIGS. 1a-1c, butylidene phthalide, citronellol, and geraniol can suppress the synthesis of nitric oxide, wherein the suppression ability of citronellol was better than butylidene phthalide or geraniol, separately.

[2] = tested on: prostaglandin E2 synthesis in RAW 264.7 cells; experiment: Suppression of prostaglandin E2 synthesis (EIA) in LPS-stimulated RAW 264.7 cells; conditions: Mus musculus, read-out: IC50 of prostaglandin E2 synthesis
Description: as §1
The same procedure carried out in Example 1 was repeated with the exception that the detection of the nitric oxide was changed to detect prostaglandin E2 by prostaglandin E2-monoclonal enzyme immunoassay kit (EIA, Cayman Chem., Ann Arbor, Mich.). The concentration of butylidene phthalide was 5 μM, 50 μM, 250 μM, 500 μM, and 1000 μM, the concentration of citronellol was 50 μM, 500 μM, and 750 μM and the concentration of geraniol was 50 μM, 500 μM, and 750 μM, separately. […]

RAW264.7 cell = experiment: Cell viability assay (MTT); conditions: 50 μM to 1000 μM (citronellol to 750 μM), LPS-stimulated, 20 hours
[3] = RAW264.7, RAW 264.7 cells, LPS 100 ng/ml, 20 hours, nitrite by Griess reagent
[4] = RAW264.7, RAW 264.7 cells, LPS 100 ng/ml, 20 hours, PGE2 EIA kit

Structure (SMILES)	IC50 ([1]; RAW264.7, 20 h) [µM]	IC50 ([2]; RAW264.7, 20 h) [µM]	RAW264.7 cell viability by MTT assay (RAW264.7 cell)	IC50 [1, 3] [µM]	IC50 [2, 4] [µM]
CCCC=C1OC(=O)c2ccccc21 [butylidene phthalide]	406	49.6	did not affect cell viability	–	–
CC(C)=CCCC(C)CCO (stereo not shown) [citronellol]	–	–	–	295	26.9
CC(C)=CCC/C(C)=C/CO [geraniol]	–	–	–	403	372

Source: US20080268078A1, “Composition for inhibiting nitric oxide and/or prostaglandin E2 synthesis and method for inhibiting inflammation” (Yangsen Biotechnology Co., Ltd., priority 2007, published 2008)
